Measured values published in US12077503B2, “Substituted cyclic amides and their use as herbicides” (FMC CORPORATION, priority 2015, dated 2024).

Tests used:
Type in all cases: in vivo
Kochia (Kochia scoparia) [1] = assay: Test A preemergence
Summary of the method: (§1)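 Preemergence directed soil spray on seeded pots, or postemergence application to plants 2–10 cm, one- to two-leaf. Solvent mixture non-phytotoxic, with surfactant. Scored ~10 d later, visually, 0–100 vs untreated.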

[2] = test system: barnyardgrass (Echinochloa crus-galli); assay: Test A preemergence
Summary of the method: as §1

[3] = test system: giant foxtail (Setaria faberii); assay: Test A preemergence
Summary of the method: as §1

[4] = test system: pigweed (Amaranthus retroflexus); assay: Test A preemergence
[5] = test system: ragweed (common ragweed, Ambrosia elatior); assay: Test A preemergence
Summary of the method: as §1

[6] = test system: ryegrass, Italian (Italian ryegrass, Lolium multiflorum); assay: Test A preemergence
Summary of the method: as §1

[7] = test system: Galium (catchweed bedstraw, Galium aparine); assay: Test A postemergence
Summary of the method: as §1

Kochia (Kochia scoparia) [8] = assay: Test A postemergence
Summary of the method: as §1

[9] = test system: barnyardgrass (Echinochloa crus-galli); assay: Test A postemergence
Summary of the method: as §1

[10] = test system: blackgrass (Alopecurus myosuroides); assay: Test A postemergence
Summary of the method: as §1

corn (Zea mays) = assay: Test A postemergence
Summary of the method: as §1

[11] = test system: giant foxtail (Setaria faberii); assay: Test A postemergence
Summary of the method: as §1

[12] = test system: pigweed (Amaranthus retroflexus); assay: Test A postemergence
Summary of the method: as §1

[13] = test system: ragweed (common ragweed, Ambrosia elatior); assay: Test A postemergence
Summary of the method: as §1

[14] = test system: ryegrass, Italian (Italian ryegrass, Lolium multiflorum); assay: Test A postemergence
Summary of the method: as §1

[15] = test system: wheat (Triticum aestivum); assay: Test A postemergence
Summary of the method: as §1

[16] = test system: barnyardgrass (Echinochloa crus-galli); assay: Test B flooded paddy test; conditions: Flood, 250 g ai/ha; 0 to 100 scale where 0 is no effect and 100 is complete control; 13 to 15 d
Summary of the method: (§2)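 Greenhouse paddy pots with 2-leaf stage plants received compound by direct addition to floodwater 3 cm deep, kept at that level. Scored visually at 13–15 d versus controls (0 no effect; 100 complete control).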

[17] = test system: ducksalad (Heteranthera limosa); assay: Test B flooded paddy test; conditions: Flood, 250 g ai/ha; 0 to 100 scale where 0 is no effect and 100 is complete control; 13 to 15 d
Summary of the method: as §2

rice (Oryra sativa) = assay: Test B flooded paddy test; conditions: Flood, 250 g ai/ha; 0 to 100 scale where 0 is no effect and 100 is complete control; 13 to 15 d
Summary of the method: as §2

[18] = test system: sedge, umbrella (small-flower umbrella sedge, Cyperus difformis); assay: Test B flooded paddy test; conditions: Flood, 250 g ai/ha; 0 to 100 scale where 0 is no effect and 100 is complete control; 13 to 15 d
Summary of the method: as §2

[19] = 125 g ai/ha, Preemergence, visual injury after approximately 10 d, 0 to 100 scale where 0 is no effect and 100 is complete control
[20] = 500 g ai/ha, preemergence, 0 to 100 scale, 0 = no effect, 100 = complete control
[21] = 125 g ai/ha, postemergence, visual rating after approx. 10 d, 0 to 100 scale (0 no effect, 100 complete control)
[22] = Postemergence, 500 g ai/ha, 0 to 100 scale where 0 is no effect and 100 is complete control

| Structure (SMILES) | Plant response rating, Kochia (Kochia (Kochia scoparia) [1]; [19]) | Plant response rating, Kochia (Kochia (Kochia scoparia) [1]; [20]) | Plant response rating, Barnyardgrass [2, 19] | Plant response rating, Barnyardgrass [2, 20] | Plant response rating, Foxtail, Giant [3, 19] | Plant response rating, Foxtail, Giant [3, 20] | Plant response rating, Pigweed [4, 19] | Plant response rating, Pigweed [4, 20] | Plant response rating, Ragweed [5, 19] | Plant response rating, Ragweed [5, 20] | Plant response rating, Ryegrass, Italian [6, 19] | Plant response rating, Ryegrass, Italian [6, 20] | Plant response rating, Galium [7, 21] | Plant response rating, Galium [7, 22] | Plant response rating, Kochia (Kochia (Kochia scoparia) [8]; [21]) | Plant response rating, Kochia (Kochia (Kochia scoparia) [8]; [22]) | Plant response rating, Barnyardgrass [9, 21] | Plant response rating, Barnyardgrass [9, 22] | Plant response rating, Blackgrass [10, 21] | Plant response rating, Blackgrass [10, 22] | other results |
| --- | --- | --- | --- | --- | --- | --- | --- | --- | --- | --- | --- | --- | --- | --- | --- | --- | --- | --- | --- | --- | --- |
| CN1CC(c2ccc(F)c(C(F)(F)F)c2)C(C(=O)Nc2ccccc2S(C)(=O)=O)C1=O (stereo not drawn) [Compound 612] | 20 | 20 | 90 | 90 | 90 | 90 | 70 | 70 | 50 | 50 | 50 | 70 | 30 | 50 | 20 | 40 | 70 | 90 | 40 | 60 | Plant response rating, Corn (corn (Zea mays); [21]): 50; Plant response rating, Corn (corn (Zea mays); [22]): 90; Plant response rating, Foxtail, Giant [11, 21]: 70; Plant response rating, Foxtail, Giant [11, 22]: 90; Plant response rating, Pigweed [12, 21]: 20; Plant response rating, Pigweed [12, 22]: 50; Plant response rating, Ragweed [13, 21]: 0; Plant response rating, Ragweed [13, 22]: 20; Plant response rating, Ryegrass, Italian [14, 21]: 20; Plant response rating, Ryegrass, Italian [14, 22]: 70; Plant response rating, Wheat [15, 21]: 30; Plant response rating, Wheat [15, 22]: 30; Plant response rating, Barnyardgrass [16]: 65; Plant response rating, Ducksalad [17]: 100; Plant response rating, Rice (rice (Oryra sativa)): 15; Plant response rating, Sedge, Umbrella [18]: 85 |
| CN1CC(c2cccc(OC(F)F)c2)C(C(=O)Nc2ccc(F)cc2F)C1=O (stereo not drawn) [Compound 617] | 70 | 70 | 90 | 90 | 90 | 100 | 90 | 90 | 30 | 60 | 70 | 90 | 60 | 60 | 50 | 60 | 90 | 90 | 40 | 60 | Plant response rating, Corn (corn (Zea mays); [21]): 80; Plant response rating, Corn (corn (Zea mays); [22]): 80; Plant response rating, Foxtail, Giant [11, 21]: 90; Plant response rating, Foxtail, Giant [11, 22]: 90; Plant response rating, Pigweed [12, 21]: 30; Plant response rating, Pigweed [12, 22]: 50; Plant response rating, Ragweed [13, 21]: 20; Plant response rating, Ragweed [13, 22]: 50; Plant response rating, Ryegrass, Italian [14, 21]: 20; Plant response rating, Ryegrass, Italian [14, 22]: 50; Plant response rating, Wheat [15, 21]: 50; Plant response rating, Wheat [15, 22]: 60; Plant response rating, Barnyardgrass [16]: 90; Plant response rating, Ducksalad [17]: 100; Plant response rating, Rice (rice (Oryra sativa)): 10; Plant response rating, Sedge, Umbrella [18]: 0 |
